Consider one compound from US20230390386A1, “REPLICATION-DEFECTIVE VACCINES AND USES THEREOF” (priority 2020, published 2023).

One test relates to ToledoLuc strain of HCMV. Kind of test: ToledoLuc growth curve in MRC-5 cells after CM treatment of virus (bioluminescence). It counts as cell-based, human cytomegalovirus. Here is the method:
ToledoLuc treatment with CM: The human cytomegalovirus (HCMV) strain ToledoLuc, which contains a luciferase expression cassette, was used in this study and well-known to those of skill in the art. Cells of the MRC-5 human diploid fibroblast line were seeded into 12-well plates. […] After 2 hours of treatment with CM, ToledoLuc viruses were washed 3 times with cDMEM and added to MRC-5 cells at an MOI of 0.05 in triplicate wells. The control includes the ToledoLuc treated with the PET vehicle in a similar way. The growth kinetics of ToledoLuc was determined by bioluminescence assay. The luciferase activity of ToledoLuc virus was measured every 24 hours using IVIS-50.
In the present example, the effect of CM treatment on the HCMV was first examined using the modified ToledoLuc strain of HCMV. ToledoLuc was treated with different concentrations of CM for two hours at room temperature, washed to remove unbound CM and then allowed to grow in the MRCS cells.

For another test, the system named is E. coli. Description: CM treatment of E. coli, colony count on LB agar plates. The test is classed as cell-based. The settings on record: three hours at room temperature. Here is the method:
CM treatment of E. coli: Overnight cultures of E. coli culture were diluted 200 times in LB media to make final volume of 1 ml and treated with different concentrations (100 μM, 10 μM, 1 μM, and 0.1 μM) of centanamycin for three hours at room temperature. The treated E. coli cells were then centrifuged at 10,000 rpm for 1 min, supernatant was removed and the pellet was resuspended in 100 μl of LB and plated on the LB agar plate without any antibiotic. The plates were then incubated at 37° C. for 16 hours. To determine the effect of centanamycin, the number of colonies were counted on each plate.
First, a culture of E. coli that had been established by an overnight incubation was diluted 200 times in LB media to make final volume to be 1 ml, followed by treatment with different concentrations of centanamycin (100 μM, 10 μM, 1 μM, and 0.1 μM) for three hours at room temperature. The treated cells were then centrifuged at 10,000 rpm for 1 min, supernatant was removed and the pellet was resuspended in 100 μl of LB and plated on LB agar plates without any antibiotic. The plates were then incubated at 37° C. for 16 hours. To determine the effect of centanamycin, the number of colonies on each plate were counted (FIGS. 6A-6B). […] Some of these bacteria were replication-defective and attenuated, making them suitable for use as vaccines.

For a further test, the system named is HSV-2 GFP. Description: HSV-2 GFP fluorescence imaging and growth curve (plaque assay) in ARPE-19 cells after CM treatment. It counts as cell-based, human simplex virus-2. The settings on record: for HSV-2-GFP infection and growth: ARPE-19 cells. Here is the method:
Human Simplex Virus (HSV) treatment with CM: The ARPE-19 (ATCC CRL-2302) cells were grown in 12 well plate in DMEM with 10% FBS and 1% P/S. […] were treated with different concentration of centanamycin (100 μM, 10 μM, 1μM, 0.1 μM, and 0.01 μM) for two hours at room temperature. The CM treated HSV were washed 3 times with cDMEM after treatment to remove CM and added to the ARPE-19 cells in triplicate at an MOI of 0.2. The HSV viruses were collected at 6, 12, 18, 24, 30, 36, and 42 hours of post-infection. The virus titer was determined by plaque assays using ARPE-19 cells.
In this study, the HSV-2 GFP was treated with the different concentrations of CM ranging from 100 μM to 0.01 μM (10-fold serial dilution at each concentration) and determined the growth curve using plaque assay (FIG. 2B). […] A 10 μM CM treatment of HSV-2-GFP leads to the virus attenuation and the virus was not able to spread to adjacent cells (FIG. 2A). […] The virus treatment with 1 μM CM lead to viral infection in host cells and extremely slowly spread to neighbor cells (FIG. 2A).

The next test relates to VZV-Luc. Description: Cell-free VZV-Luc growth curve in ARPE-19 cells after CM treatment. It counts as cell-based, varicella zoster virus. The settings on record: for VZV-Luc growth and spread: two hours at RT, ARPE-19 cells. Here is the method:
Cell-free Varicella-zoster virus (VZV) treatment with the CM: VZV is a cell-associated virus. The efficacy of CM on VZV was checked using growth curve analysis. VZV-GFP-Luc was used to check the effect of CM on the virus. The ARPE-19 cells were seeded in 6-well plate and maintained at 37° C. and 5% CO2. The cell-free virus was treated with different concentration of CM (centanamycin (100 μM, 10 μM, and 0.1 μM) for two hours at RT and washed with three times with cDMEM prior to adding to the cells. The virus load in the infected cells was determined by adding luciferin substrate and measuring relative luciferase units every 24 hours of post-infection. The control included the cells infected with the virus without CM treatment. Viability of infected cells was quantified using the Cell Counting Kit-8 (Sigma# 96992) according to the manufacturers protocol.
Subsequent studies then evaluated the effect of CM treatment on the replication and growth of human alphaherpesvirus-3, also known as varicella zoster virus (VZV), under in vitro conditions in human epithelial ARPE-19 cells. The VZV is a highly cell associated virus and it is transmitted by cell-cell spread. The cell-free, luciferase-expressing VZV-Luc was treated with different concentration of CM (100 μM, 10 μM, 1.0 μM, and 0.1 μM) for two hours at RT. After two hours, the virus was added to the ARPE-19 cells. […] As compared to the CMV which can be attenuated with 1 μM CM, VZV is attenuated with 10 μM CM and this is because VZV is a cell associated virus and CM needs to cross the cell membrane to bind the virus and completely attenuates the VZV.

For the compound `COc1cc2cc(C(=O)Nc3cc(N)c4ccccc4c3CCCl)[nH]c2c(OC)c1OC` [CM, centanamycin], the “ToledoLuc infection and replication (luciferase activity)” value was “allows the virus to grow and replicate in the infected cells” in the test on ToledoLuc strain of HCMV (virus treated with 0.01 μM-0.001 μM CM); “allow the virus to infect the cells but did not replicate” in the test on ToledoLuc strain of HCMV (virus treated with 0.1 μM CM, 2 hours at RT); “did not grow and was replication-defective” in the test with ToledoLuc strain of HCMV (virus treated with 1 μM CM, 2 hours at RT, MRC5 cells, 9 days post-infection); “neither replicate nor infects the cells” in the test with ToledoLuc strain of HCMV (virus treated with 10 μM CM, 2 hours at RT, MRC5 cells); “neither replicate nor infects the cells” with ToledoLuc strain of HCMV (virus treated with 100 μM CM, 2 hours at RT, MRC5 cells). In addition, the “E. coli colonies on LB agar plate after 16 hours” value is “reduce the number of bacterial colonies on the agar plate in a dose dependent manner” in the test with E. coli (0.1 μM), “reduce the number of bacterial colonies on the agar plate in a dose dependent manner” in the test on E. coli (1 μM), “reduce the number of bacterial colonies on the agar plate in a dose dependent manner” in the test on E. coli (10 μM) and “did not grow on the LB agar plate” in the test with E. coli (100 μM). Moreover, in the test on HSV-2 GFP, the “CM concentration needed to produce replication-defective HSV-2” value turned out to be 1 µM. Further, the “HSV-2-GFP infection and growth” value in the test on HSV-2 GFP (virus treated with 1.0 μM CM) is given as “slower growth as compared to untreated”; in the test on HSV-2 GFP (virus treated with 10 μM CM) it was “able to infect the cells but not replicate”; in the test with HSV-2 GFP (virus treated with 100 μM CM), “completely inhibits the virus infection”. Moreover, the “CM concentration that attenuates VZV” value in the test with VZV-Luc turned out to be 10 µM. Further, the “VZV-Luc growth and spread” value with VZV-Luc (cell-free virus treated with 0.1 μM CM) is reported as “infect as well as spread to the adjacent cells but with reduced growth”; with VZV-Luc (cell-free virus treated with 1.0 μM CM) it was “infect as well as spread to the adjacent cells but with reduced growth”; in the test with VZV-Luc (cell-free virus treated with 10.0 μM CM), “allowed the virus to infect the cells but not to spread to the adjacent cells”; in the test with VZV-Luc (cell-free virus treated with 100 μM CM), “completely inhibit the growth as well as replication”.
